Source: patent publication EP1363949B1, “FUNCTIONAL FRAGMENT OF THE LEPTINE RECEPTOR” (Vlaams Interuniversitair Instituut voor Biotechnologie vzw., priority 2000, dated 2007)

Tested on: FLAG-tagged SOCS3
Test: phosphopeptide affinity chromatography with anti-FLAG Western blot
Assay type: binding, rat
Details: lysates of HEK293T cells transfected with pMET7-fSOCS3, biotinylated peptides on streptavidin-agarose
From the text: Monoclonal anti-FLAG antibody M2 was obtained from Sigma. Mouse recombinant leptin was purchased from R&D Systems. Peptides were synthesized using standard Fmoc-amino-acid solid phase chemistry on an Applied Biosystems Model 431A peptide synthesizer. Biotin was esterified manually following similar procedures as on the synthesizer, and added to the reaction mixture. Incorporation of phosphotyrosine was realized by using a protected Fmoc-tyrosine-phosphobenzylester (Novabiochem). After purification, mass of the peptides was confirmed by mass spectrometry. Sequences of the peptides used were biotin-QRQPSVK(p)Y985ATLVSNDK and biotin-NHREKSVC(p)Y1077LGVTSVNR.
Approximately 10^6 HEK293T cells were lysed in 150 µl 2x loading buffer. After sonication, 30 µl was loaded on a 10% polyacrylamide gel. […] Blotting efficiency was checked using PonceauS staining (Sigma). […] Peptide concentrations were determined by a colorimetric assay using alkaline hydrolysis and a ninhydrine reagent. […]
The interaction sites of SOCS3 with the leptin receptor were confirmed using a biochemical approach. FLAG-tagged SOCS3 was expressed upon transient transfection of pMET7-fSOCS3 in HEK293T cells, and was analyzed for binding to (phospho)-tyrosine containing peptides matching the two motifs within the leptin receptor. […]

For “biotin-QRQPSVK(p)Y985ATLVSNDK [non-phosphorylated peptide]”, the “binding of SOCS3” value was “did not bind any SOCS3 protein”.
